Data reported in patent publication US20180110762A1, “Compositions Methods for Treating Chronic Kidney Disease” (Merck Sharp & Dohme Corp, priority 2015, published 2018).

Target: T1, αvβ3 purified from 293 cells overexpressing αvβ3 (Homo sapiens, UniProt P05106+P06756)
T1 construct: made in house; host or cells: 293 cells overexpressing αvβ3
Assay: SPAV3 binding assay (scintillation proximity)
Source text: • 1. Wheat germ agglutinin Scintillation Proximity Beads (SPA): Amersham • 2. Octylglucopyranoside: Calbiochem • 3. HEPES: Calbiochem • 4. NaCl: Fisher • 5. CaCl2: Fisher • 6. MgCl2: SIGMA • 7. Phenylmethylsulfonylfluoride (PMSF): SIGMA • 8. Optiplate: PACKARD • 9. (S)-3-(4-(2-(6-aminopyridin-2-yl)ethyl)benzamido)-2-((4-(iodo-^125I)phenyl)sulfonamido)propanoic acid as found in WO0046215 (specific activity 500-1000 Ci/mmole) • 10. Test compound • 11. Purified integrin receptor: αvβ3 was purified from 293 cells overexpressing αvβ3 (Duong et al., J. Bone Min. Res., 8:S378, 1993) according to Pytela (Methods in Enzymology, 144:475, 1987) • 12. Binding buffer: 50 mM HEPES, pH 7.8, 100 mM NaCl, 1 mM Ca^2+/Mg^2+, 0.5 mM PMSF • 13. 50 mM octylglucoside in binding buffer: 50-OG buffer
• 1. Pretreatment of SPA beads: • 500 mg of lyophilized SPA beads were first washed four times with 200 ml of 50-OG buffer and once with 100 ml of binding buffer, and then resuspended in 12.5 ml of binding buffer. • 2. Preparation of SPA beads and receptor mixture • In each assay tube, 2.5 μl (40 mg/ml) of pretreated beads were suspended in 97.5 μl of binding buffer and […] of 50-OG buffer. […] (˜30 ng/μ1) of purified receptor was added to the beads in suspension with stirring at room temperature for 30 minutes. The mixture was then centrifuged at 2,500 rpm in a Beckman GPR Benchtop centrifuge for 10 minutes at 4° C. The pellets were then resuspended in 50 μl of binding buffer and 25 μl of 50-OG buffer. • 3. Reaction • The following were sequentially added into Optiplate in corresponding wells: • (i) Receptor/beads mixture (75 μl) • (ii) 25 μl of each of the following: compound to be tested, binding buffer for total binding or A-8 for non-specific binding (final concentration 1 μM) • (iii) (S)-3-(4-(2-(6-aminopyridin-2-yl)ethyl)benzamido)-2-((4-(iodo-^125I)phenyl)sulfonamido)propanoic acid as found in WO0046215 (specific activity 500-1000 Ci/mmole) in binding buffer (25 μl, final concentration 40 pM) • (iv) Binding buffer (125 μl) • (v) Each plate was sealed with plate sealer from PACKARD and incubated overnight with rocking at 4° C. • 4. Plates were counted using PACKARD TOPCOUNT • 5. % inhibition was calculated as follows: • A=total counts • B=nonspecific counts • C=sample counts
% inhibition=[{(A−B)−(C−B)}/(A−B)]/(A−B)×100

T1 sequence (P06756 31-889 limits assumed): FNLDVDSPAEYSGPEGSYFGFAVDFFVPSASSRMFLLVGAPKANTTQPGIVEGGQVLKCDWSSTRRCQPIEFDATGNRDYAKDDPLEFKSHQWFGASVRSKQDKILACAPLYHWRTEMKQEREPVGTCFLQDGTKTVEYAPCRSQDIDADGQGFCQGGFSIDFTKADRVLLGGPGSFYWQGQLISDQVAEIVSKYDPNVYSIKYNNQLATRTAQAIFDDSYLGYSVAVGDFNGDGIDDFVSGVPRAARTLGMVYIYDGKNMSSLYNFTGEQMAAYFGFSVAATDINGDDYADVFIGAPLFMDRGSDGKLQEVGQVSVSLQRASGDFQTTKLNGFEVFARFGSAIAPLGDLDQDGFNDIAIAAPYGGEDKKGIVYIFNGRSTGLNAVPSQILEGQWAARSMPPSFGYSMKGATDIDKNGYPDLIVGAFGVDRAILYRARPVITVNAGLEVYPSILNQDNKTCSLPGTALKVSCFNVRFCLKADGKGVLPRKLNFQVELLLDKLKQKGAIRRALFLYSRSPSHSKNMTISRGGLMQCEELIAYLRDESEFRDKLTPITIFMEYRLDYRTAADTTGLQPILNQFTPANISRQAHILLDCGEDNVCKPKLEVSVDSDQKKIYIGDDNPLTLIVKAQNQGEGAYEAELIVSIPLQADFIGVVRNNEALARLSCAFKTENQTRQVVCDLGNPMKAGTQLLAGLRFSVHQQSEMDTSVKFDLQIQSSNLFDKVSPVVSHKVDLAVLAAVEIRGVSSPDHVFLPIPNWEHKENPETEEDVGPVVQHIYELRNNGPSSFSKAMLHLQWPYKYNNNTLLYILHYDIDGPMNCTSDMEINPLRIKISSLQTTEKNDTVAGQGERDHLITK
T1 sequence (P06756 891-1048 partner limits assumed): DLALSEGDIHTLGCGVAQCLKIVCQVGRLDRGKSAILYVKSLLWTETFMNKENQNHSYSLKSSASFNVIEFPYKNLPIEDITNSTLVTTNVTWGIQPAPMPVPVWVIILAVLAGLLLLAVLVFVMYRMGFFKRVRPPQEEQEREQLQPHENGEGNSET
T1 sequence (P05106 27-788): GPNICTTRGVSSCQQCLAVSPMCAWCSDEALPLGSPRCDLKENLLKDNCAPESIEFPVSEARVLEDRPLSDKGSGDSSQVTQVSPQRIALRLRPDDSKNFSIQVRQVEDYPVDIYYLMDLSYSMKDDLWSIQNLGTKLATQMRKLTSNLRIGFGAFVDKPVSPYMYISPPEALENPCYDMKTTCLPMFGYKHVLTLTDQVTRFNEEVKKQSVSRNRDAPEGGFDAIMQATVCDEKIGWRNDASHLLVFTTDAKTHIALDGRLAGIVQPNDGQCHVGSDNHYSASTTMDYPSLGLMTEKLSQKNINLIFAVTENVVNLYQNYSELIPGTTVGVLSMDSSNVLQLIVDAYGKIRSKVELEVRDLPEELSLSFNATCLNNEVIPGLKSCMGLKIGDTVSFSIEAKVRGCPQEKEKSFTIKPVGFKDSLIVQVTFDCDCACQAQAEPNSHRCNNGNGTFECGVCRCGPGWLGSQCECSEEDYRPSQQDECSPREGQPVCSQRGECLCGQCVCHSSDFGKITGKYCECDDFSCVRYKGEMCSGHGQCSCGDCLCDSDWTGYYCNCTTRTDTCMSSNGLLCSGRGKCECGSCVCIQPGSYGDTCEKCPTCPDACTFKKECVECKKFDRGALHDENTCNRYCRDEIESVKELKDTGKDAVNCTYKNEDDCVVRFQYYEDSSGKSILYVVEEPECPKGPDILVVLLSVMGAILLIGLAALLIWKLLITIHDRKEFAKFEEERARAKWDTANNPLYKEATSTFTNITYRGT

Structure (SMILES) | IC50 [nM]
O=C(O)C[C@H](/C=C/CCCCc1ccc2c(n1)NCCC2)c1cncnc1 [Compound E, 3 (R)-(Pyrimidin-5-yl)-9-(5,6,7,8-tetrahydro-[1,8]-naphthyridin-2-yl)-(E)-non-4-enoic Acid] | 0.1
Cc1ncc([C@@H](CCCCCCc2ccc3c(n2)NCCC3)CC(=O)O)cn1 [Compound F] | 0.1
Cc1ncc(C(CC(=O)O)CC(=O)CCCCc2ccc3c(n2)NCCCC3)cn1 [Compound H, 3(R) and 3(S)-(2-Methyl-pyrimidin-5-yl)-5-oxo-9-(5,6,7,8-tetrahydro-5H-pyrido[2,3-b]azepin-2-yl)-nonanoic Acid] | 0.2

Now from value to molecule:

IC50 [nM] | Structure (SMILES)
0.1 | Cc1ncc(C(CC(=O)O)CC(=O)CCCCc2ccc3c(n2)NCCC3)cn1 (single isomer, unassigned) [Compound G, 3(S or R)-(2-Methyl-pyrimidin-5-yl)-5-oxo-9-(5,6,7,8-tetrahydro-[1,8]naphthyridin-2-yl)-nonanoic Acid]
0.1 | COc1ccc([C@H](CC(=O)O)N2CCN(CCCc3ccc4c(n3)NCCC43CC3)C2=O)cn1 [Compound C]
0.1 | CCOc1ccc([C@H](CC(=O)O)N2CCN(CCCc3ccc4c(n3)NCCC4)C2=O)cn1 [Compound D]
